Experiments:
[1] = Therapeutic index, ratio of neurotoxicity in iv dosed Sprague-Dawley rat assessed as total amount of drug infused at the point that partial or complete convulsions are first observed to 20 times ED50 for antiarrhythmic activity in iv dosed Sprague-Dawley rat coronary artery occlusion model; format: organism-based; details: in vivo; for selectivity ratio: Sprague-Dawley, read-out: TI
[2] = Neurotoxicity in iv dosed Sprague-Dawley rat assessed as minimum infusion rate of the compound require for partial and complete convulsion; format: toxicity, organism-based; details: in vivo
[3] = Neurotoxicity in iv dosed Sprague-Dawley rat assessed as total amount of drug infused at the point that partial or complete convulsions are first observed; format: toxicity, organism-based; details: in vivo
[4] = tested on: Rattus norvegicus; assay: Antiarrhythmic activity in iv dosed Sprague-Dawley rat coronary artery occlusion model administered via infusion for 5 mins starting 15 post surgery followed by coronary artery occlusion measured for 15 mins by electrocardiogram; format: functional
[5] = tested on: Canis familiaris; assay: Inhibition of atrial fibrillation in iv dosed Mongrel dog vagal-atrial fibrillation model administered via infusion pump over 5 mins by electrophysiological method; format: functional, Canis lupus familiaris

OC1CCN(C2CCCC[C@@H]2OCCc2ccccc2Br)C1 (stereo partly drawn) showed a selectivity ratio [1] of 8.4.
COc1ccc(CCOC2CCCC[C@H]2N2CCC(=O)C2)cc1OC (stereo partly drawn) showed a selectivity ratio [1] of 2.6.
COc1ccc(CCOC2CCCC[C@H]2N2CCOCC2)cc1OC.Cl (stereo partly drawn) gave a TI [1] of 3.8.
For OC1CCN(C2CCCC[C@@H]2OCCc2c(Cl)cccc2Cl)C1 (stereo partly drawn), the selectivity ratio [1] was 5.4.
Work on COc1ccc(CCOC2CCCC[C@H]2N2CCC(F)C2)cc1OC (stereo partly drawn) yielded a selectivity ratio [1] of 2.3.
Molecule COc1ccc(CCO[C@H]2CCCCC2N2CCC[C@@H]2CO)cc1OC (stereo partly drawn) has a selectivity ratio [1] of 8.9.
With COc1ccc(CCOC2CCCC[C@H]2N2CCN(C(=O)Cc3ccc(OC)c(OC)c3)CC2)cc1OC (stereo partly drawn) the selectivity ratio [1] was 11.1.
With Brc1ccc(CCO[C@H]2CCCCC2N2CCOCC2)cc1 (stereo partly drawn) the selectivity ratio [1] was 2.2.
Work on c1ccc2c(CCO[C@H]3CCCCC3N3CCOCC3)cccc2c1 (stereo partly drawn) yielded a selectivity ratio [1] of 4.7.
In the case of Cl.OC1CCN([C@@H]2CCCC[C@@H]2OCCc2cccc3ccccc23)C1 (stereo partly drawn), the TI [1] is reported as 8.8.
COc1ccc(CCO[C@H]2CCCCC2N2CC[C@@H](OCc3ccccc3)C2)cc1OC (stereo partly drawn) gave a selectivity ratio [1] of 2.6.
Work on c1ccc2cc(OCCO[C@H]3CCCCC3N3CCOCC3)ccc2c1 (stereo partly drawn) yielded a selectivity ratio [1] of 1.5.
With c1ccc2c(CCO[C@H]3CCCCC3N3CCOCC3)csc2c1 (stereo partly drawn) the selectivity ratio [1] was 3.3.
With FC(F)(F)c1ccccc1CCO[C@H]1CCCC[C@H]1N1CCOCC1 (racemic) the selectivity ratio [1] was 3.6.
COc1ccc(CCCCO[C@H]2CCCCC2N2CCOCC2)cc1OC (stereo partly drawn) gave a selectivity ratio [1] of 2.2.
For COc1ccc(CCO[C@H]2CCCCC2N2CC[C@H](OC(C)=O)C2)cc1OC (stereo partly drawn), the selectivity ratio [1] was 2.
With COc1ccc(CCO[C@H]2CCCCC2N2CC[C@H](OCc3ccccc3)C2)cc1OC.Cl (stereo partly drawn) the Activity [2] was 8 µmol/kg/min and the selectivity ratio [1] was 3.8.
With OC1CCN(C2CCCC[C@@H]2OCCn2ccc3ccccc32)C1 (stereo partly drawn) the selectivity ratio [1] was 9.4.
Molecule CC(=O)OC1CCN([C@@H]2CCCCC2OCCc2cccc3ccccc23)C1 (stereo partly drawn) has a selectivity ratio [1] of 2.3.
Work on COc1ccc(CCOC2CCCCC2N2CCCC2)cc1OC.Cl (stereo not drawn) yielded an Activity [2] of 8 to 21.3 µmol/kg/min, an Activity [3] of 44.4 to 118 µmol/kg and an ED50 [4] of 1.33 to 2.4 µmol/kg/min. For the same molecule, the selectivity ratio [1] was 0.9 to 4.4.
Work on Clc1cccc(Cl)c1CCOC1CCCC[C@H]1N1CCSC1 (stereo partly drawn) yielded a selectivity ratio [1] of 2.5.
Molecule O=C1CCN(C2CCCC[C@@H]2OCC(c2ccccc2)c2ccccc2)C1 (stereo partly drawn) has a selectivity ratio [1] of 3.1.
With Clc1cccc(Cl)c1COC1CCCC[C@H]1N1CCOCC1 (stereo partly drawn) the selectivity ratio [1] was 2.7.
In the case of Clc1ccc(CCO[C@H]2CCCCC2N2CCOCC2)cc1Cl (stereo partly drawn), the selectivity ratio [1] is reported as 3.9.
COc1ccc(CCO[C@H]2CCCCC2N2CCOCC2)cc1OC (stereo partly drawn) gave a TI [1] of 1.4.
O[C@@H]1CCN(C2CCCC[C@@H]2OCCc2ccccc2C(F)(F)F)C1 (stereo partly drawn) showed a selectivity ratio [1] of 7.3.
Molecule Brc1ccc(OCCO[C@H]2CCCCC2N2CCOCC2)cc1 (stereo partly drawn) has a selectivity ratio [1] of 1.4.
With Cl.OC1CCN(C2CCCC[C@@H]2OCCc2cccc3ccccc23)C1 (stereo partly drawn) the TI [1] was 4.3.
Molecule Brc1ccccc1CCO[C@H]1CCCCC1N1CCOCC1 (stereo partly drawn) has a selectivity ratio [1] of 6.3.
Brc1cccc(CCO[C@H]2CCCCC2N2CCOCC2)c1 (stereo partly drawn) showed a selectivity ratio [1] of 3.3.
In the case of O=C1CCN(C2CCCC[C@@H]2OCCc2c(Cl)cccc2Cl)C1 (stereo partly drawn), the selectivity ratio [1] is reported as 8.6.
In the case of c1ccc2cc(CCO[C@H]3CCCCC3N3CCOCC3)ccc2c1 (stereo partly drawn), the selectivity ratio [1] is reported as 5.3.
For c1cc(CCO[C@H]2CCCCC2N2CCOCC2)c2ccsc2c1 (stereo partly drawn), the selectivity ratio [1] was 2.7.
In the case of COc1cc(CCCO[C@H]2CCCCC2N2CC[C@@H](O)C2)cc(Cl)c1OC (stereo partly drawn), the selectivity ratio [1] is reported as 7.6.
For COc1ccc(CCO[C@H]2CCCCC2N2CCC3(C2)OCCO3)cc1OC (stereo partly drawn), the selectivity ratio [1] was 2.9.
With O=C1CCN([C@@H]2CCCCC2OCc2c(Cl)cccc2Cl)C1 (stereo partly drawn) the selectivity ratio [1] was 5.1.
COc1ccc(CCO[C@@H]2CCCC[C@H]2N2CC[C@@H](OC(C)=O)C2)cc1OC showed a selectivity ratio [1] of 1.8.
O=C(NCC1CCCCN1)c1cc(OCC(F)(F)F)ccc1OCC(F)(F)F (stereo not drawn) [FLECAINIDE] showed an ED [5] of 1 to 10 µmol/kg.
For O[C@@H]1CCN(C2CCCC[C@@H]2OCCc2cc3ccccc3o2)C1 (stereo partly drawn), the selectivity ratio [1] was 3.3.
